# Assay results from US11957759B1, “Rapidly accelerated fibrosarcoma (RAF) degrading compounds and associated methods of use” (Arvinas Operations, Inc., priority 2022, dated 2024).
# Legend:
# [1] = biological target: T1, B-RAF V600E (Homo sapiens, UniProt P15056, V600E); assay: Target protein degradation, assay C: T-Rex 293 cells, HA-BRAF_V600E, 384 well format; format: cell-based; details: T-Rex 293 HA-BRAF_V600E cells, 24 hours, Examples 83-269; for DC50: Assay C; for Dmax: T-REx-293, Assay C
# T1 construct: expressed in transfected cells; host or cells: T-Rex 293 cells (Invitrogen #R71007)
# Description: C. T-Rex 293 Cells (384 Well Format)
# (§1) T-Rex 293 cells were purchased from Invitrogen (#R71007), and stably transfected with a pcDNA4/TO_HA-BRAF_V600E construct, using 400 ug Zeocin for selection. V600E cells are plated in DMEM media (Gibco #11965118) containing 10% FBS (Gibco #16000044), 1% penicillin-streptomycin (ThermoFisher #15140122), 1:250 zeocin (Invitrogen #R-25005), and 1 ng/mL doxycycline (Selleckchem #4163) at a density of 7,500 cells/well in 45 μl on PDL coated, black clear bottom 384 well plates (Corning #354663) and incubated at 37° C.+5% CO2 for 24 hours. The following day, PROTAC compounds in a 1:3 11 point dilution are diluted into DMEM media using an Agilent Bravo. 5 ul of PROTACs suspended in DMEM media are added to the cells, with a final assay concentration ranging from 300 nM to 5 pM in 0.5% DMSO. Plates are incubated at 37° C.+5% CO2 for 24 hours. At the end of treatment, media is aspirated, and cells are fixed in 50 uL 4% PFA (EMS #15710) in PBS++(PBS, 1 mM CaCl, 1 mM MgCl) at RT for 15 minutes. Cells are washed 2× with 60 uL PBS++ and permeabilized in 50 uL 1% Triton X-100 (Sigma #93443) in PBS++ for 5 minutes at RT. Cells are washed in PBS++ prior to blocking with 50 uL Licor blocking buffer (Licor #927-60001) for 1 hour at RT. HA-tagged BRAF was stained using 50 uL HA antibody (CST #3724) at 1:1000 in Licor blocking buffer for two hours at RT. Primary is aspirated before adding 50 ul of secondary antibody solution containing 1:1000 Hoechst (ThermoFisher #62249), 1:1000 HCS CellMask Deep Red Stain (ThermoFisher #H32721), and 1:5000 goat anti-rabbit IgG Alexa-Fluor 488 (ThermoFisher #A32731) in PBS++ for 1 hr at RT. Plates are washed 4× with 60 uL PBS++, then sealed with Adhesive Black Light Absorbing Film (VWR #89087-692) and imaged on the ThermoFisher CX7 PRO high content instrument. BRAF intensity is quantified in HCS Studio software (ThermoFisher), using a custom script, exported, analyzed using KNIME, and curve curation is performed in an ELN (Scilligence). Cell toxicity is measured via comparing number of nuclei in PROTAC treated wells to DMSO controls.
# (§2) The concentration of an exemplary compound that leads to half maximal degradation (DC50) as well as the maximum degradation observed (Dmax, conventionally expressed as a percentage of control) is shown below in Table 2.
# [2] = biological target: T2, B-RAF G466V (Homo sapiens, UniProt P15056, G466V); assay: Target protein degradation, assay D: T-Rex 293 cells, HA-BRAF_G466V, 384 well format; format: cell-based; details: T-Rex 293 HA-BRAF_G466V cells, 24 hours, Examples 83-269; for DC50: Assay D; for Dmax: T-REx-293, Assay D
# T2 construct: expressed in transfected cells; host or cells: T-Rex 293 cells (Invitrogen #R71007)
# Description: D. T-Rex 293 Cells (384 Well Format)
# as §1, with “pcDNA4/TO_HA-BRAF_G466V” for “pcDNA4/TO_HA-BRAF_V600E”, “G466V” for “V600E”
# as §2
# T2 sequence (P15056 whole entry G466V): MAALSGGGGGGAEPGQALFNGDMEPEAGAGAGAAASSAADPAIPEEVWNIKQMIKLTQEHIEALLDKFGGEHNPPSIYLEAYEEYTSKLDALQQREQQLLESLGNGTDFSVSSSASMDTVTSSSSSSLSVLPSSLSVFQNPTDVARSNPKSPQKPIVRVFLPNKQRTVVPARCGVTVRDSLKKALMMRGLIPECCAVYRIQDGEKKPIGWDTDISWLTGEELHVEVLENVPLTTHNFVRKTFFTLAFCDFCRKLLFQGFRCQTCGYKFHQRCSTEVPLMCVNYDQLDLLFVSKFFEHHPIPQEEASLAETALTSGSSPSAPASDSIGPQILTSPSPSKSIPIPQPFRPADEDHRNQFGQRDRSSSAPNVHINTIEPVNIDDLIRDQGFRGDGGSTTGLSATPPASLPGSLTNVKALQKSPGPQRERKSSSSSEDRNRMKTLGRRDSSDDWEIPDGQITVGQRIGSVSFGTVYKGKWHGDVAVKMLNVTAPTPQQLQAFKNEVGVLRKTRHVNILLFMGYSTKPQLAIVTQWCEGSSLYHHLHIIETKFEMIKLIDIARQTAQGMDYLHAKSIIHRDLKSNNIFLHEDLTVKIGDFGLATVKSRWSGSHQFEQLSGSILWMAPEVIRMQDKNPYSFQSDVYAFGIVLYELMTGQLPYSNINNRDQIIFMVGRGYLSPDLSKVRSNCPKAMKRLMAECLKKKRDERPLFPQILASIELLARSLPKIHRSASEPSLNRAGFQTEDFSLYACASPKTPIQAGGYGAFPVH
# T1 sequence (P15056 whole entry V600E): as the sequence (P15056 whole entry G466V) above, with V466G, V600E counted along it
Structure (SMILES),DC50 [1] [nM],DC50 [2] [nM],Dmax [1] [%],Dmax [2] [%]
"N#Cc1c(NS(=O)(=O)N2CC[C@@H](F)C2)ccc(F)c1Oc1ccc2ncn(-c3ccc(N4CCC(CN5CC6(CCC(c7ccc8c(c7)CN(C7CCC(=O)NC7=O)C8=O)CC6)C5)C4)cc3)c(=O)c2c1 (single isomer, unassigned) [Example 261, (3R)-N-(2-cyano-3-{[3-(4-{3-[(7-{2-[(3R*)-2,6-dioxopiperidin-3-yl]-1-oxo-2,3-dihydro-1H-isoindol-5-yl}-2-azaspiro[3.5]nonan-2-yl)methyl]pyrrolidin-1-yl}phenyl)-4-oxo-3,4-dihydroquinazolin-6-yl]oxy}-4-fluorophenyl)-3-fluoropyrrolidine-1-sulfonamide]",50 to 500,1 to 10,–,–
"N#Cc1c(NS(=O)(=O)N2CC[C@@H](F)C2)ccc(F)c1Oc1ccc2ncn(-c3ccc(N4CCN(CC5CCN(c6ccc7c(c6)CN(C6CCC(=O)NC6=O)C7=O)CC5)CC4)cn3)c(=O)c2c1 (stereo partly drawn) [Example 83, (3R)-N-{2-cyano-3-[(3-{5-[4-({1-[2-(2,6-dioxopiperidin-3-yl)-1-oxo-2,3-dihydro-1H-isoindol-5-yl]piperidin-4-yl}methyl)piperazin-1-yl]pyridin-2-yl}-4-oxo-3,4-dihydroquinazolin-6-yl)oxy]-4-fluorophenyl}-3-fluoropyrrolidine-1-sulfonamide]",50 to 500,≤ 1,35 to 70,≤ 35
"C[C@H]1CN(CC2CCN(c3ccc4c(c3)CN([C@H]3CCC(=O)NC3=O)C4=O)CC2)CCN1c1ccc(-n2cnc3ccc(Oc4c(F)ccc(NS(=O)(=O)N5CC[C@@H](F)C5)c4C#N)cc3c2=O)cc1 [Example 84, (3R)-N-{2-cyano-3-[(3-(4-[(2S)-4-[(1-{2-[(3S)-2,6-dioxopiperidin-3-yl]-1-oxo-2,3-dihydro-1H-isoindol-5-yl}piperidin-4-yl)methyl]-2-methylpiperazin-1-yl]phenyl}-4-oxo-3,4-dihydroquinazolin-6-yl)oxy]-4-fluorophenyl}-3-fluoropyrrolidine-1-sulfonamide]",5 to 50,≤ 1,35 to 70,35 to 70
"N#Cc1c(NS(=O)(=O)N2CC[C@@H](F)C2)ccc(F)c1Oc1ccc2ncn(-c3ccc(N4CCC(CN5CC6(C5)CN(c5ccc7c(c5)CN(C5CCC(=O)NC5=O)C7=O)C6)CC4)cc3)c(=O)c2c1 (stereo partly drawn) [Example 85, (3R)-N-{2-cyano-3-[(3-{4-[4-({6-[2-(2,6-dioxopiperidin-3-yl)-1-oxo-2,3-dihydro-1H-isoindol-5-yl]-2,6-diazaspiro[3.3]heptan-2-yl}methyl)piperidin-1-yl]phenyl}-4-oxo-3,4-dihydroquinazolin-6-yl)oxy]-4-fluorophenyl}-3-fluoropyrrolidine-1-sulfonamide]",5 to 50,1 to 10,35 to 70,35 to 70
"N#Cc1c(NS(=O)(=O)N2CC[C@@H](F)C2)ccc(F)c1Oc1ccc2ncn(-c3ccc(N4CCN(CC5CCN(c6ccc7c(c6)CN(C6CCC(=O)NC6=O)C7=O)CC5)CC4)c(F)c3)c(=O)c2c1 (stereo partly drawn) [Example 86, (3R)-N-{2-cyano-3-[(3-(4-[4-({1-[2-(2,6-dioxopiperidin-3-yl)-1-oxo-2,3-dihydro-1H-isoindol-5-yl]piperidin-4-yl}methyl)piperazin-1-yl]-3-fluorophenyl}-4-oxo-3,4-dihydroquinazolin-6-yl)oxy]-4-fluorophenyl}-3-fluoropyrrolidine-1-sulfonamide]",5 to 50,≤ 1,35 to 70,≤ 35
"N#Cc1c(NS(=O)(=O)N2CC[C@@H](F)C2)ccc(F)c1Oc1ccc2ncn(-c3ccc(N4CCN(CC5CCN(c6ccc7c(c6)CN(C6CCC(=O)NC6=O)C7=O)CC5)CC4)cc3F)c(=O)c2c1 (stereo partly drawn) [Example 87, (3R)-N-{2-cyano-3-[(3-{4-[4-({1-[2-(2,6-dioxopiperidin-3-yl)-1-oxo-2,3-dihydro-1H-isoindol-5-yl]piperidin-4-yl}methyl)piperazin-1-yl]-2-fluorophenyl}-4-oxo-3,4-dihydroquinazolin-6-yl)oxy]-4-fluorophenyl}-3-fluoropyrrolidine-1-sulfonamide]",> 500,> 30,–,–
"COc1cc(-n2cnc3ccc(Oc4c(F)ccc(NS(=O)(=O)N5CC[C@@H](F)C5)c4C#N)cc3c2=O)ccc1N1CCN(CC2CCN(c3ccc4c(c3)CN(C3CCC(=O)NC3=O)C4=O)CC2)CC1 (stereo partly drawn) [Example 88, (3R)-N-{2-cyano-3-[(3-{4-[4-({1-[2-(2,6-dioxopiperidin-3-yl)-1-oxo-2,3-dihydro-1H-isoindol-5-yl]piperidin-4-yl}methyl)piperazin-1-yl]-3-methoxyphenyl}-4-oxo-3,4-dihydroquinazolin-6-yl)oxy]-4-fluorophenyl}-3-fluoropyrrolidine-1-sulfonamide]",5 to 50,≤ 1,≤ 35,35 to 70
"N#Cc1c(NS(=O)(=O)N2CC[C@@H](F)C2)ccc(F)c1Oc1ccc2ncn(-c3cnc(N4CCN(CC5CCN(c6ccc7c(c6)CN(C6CCC(=O)NC6=O)C7=O)CC5)CC4)cn3)c(=O)c2c1 (stereo partly drawn) [Example 89, (3R)-N-{2-cyano-3-[(3-(5-[4-({1-[2-(2,6-dioxopiperidin-3-yl)-1-oxo-2,3-dihydro-1H-isoindol-5-yl]piperidin-4-yl}methyl)piperazin-1-yl]pyrazin-2-yl}-4-oxo-3,4-dihydroquinazolin-6-yl)oxy]-4-fluorophenyl}-3-fluoropyrrolidine-1-sulfonamide]",5 to 50,1 to 10,35 to 70,≤ 35
"N#Cc1c(NS(=O)(=O)N2CC[C@@H](F)C2)ccc(F)c1Oc1ccc2ncn(-c3cccc(N4CCN(CC5CCN(c6ccc7c(c6)CN(C6CCC(=O)NC6=O)C7=O)CC5)CC4)c3)c(=O)c2c1 (stereo partly drawn) [Example 90, (3R)-N-{2-cyano-3-[(3-{3-[4-({1-[2-(2,6-dioxopiperidin-3-yl)-1-oxo-2,3-dihydro-1H-isoindol-5-yl]piperidin-4-yl}methyl)piperazin-1-yl]phenyl}-4-oxo-3,4-dihydroquinazolin-6-yl)oxy]-4-fluorophenyl}-3-fluoropyrrolidine-1-sulfonamide]",50 to 500,1 to 10,35 to 70,35 to 70
